# Test system: S. aureus
# Experiment: S. aureus growth (OD600)
# Type: cell-based
# Conditions: S. aureus WT and QS mutant with vesicles, 12 hr
# Procedure: Microtiter plate vesicle lysis assays. Portions of media (2 or 10 mL) were inoculated with individual bacterial colonies and allowed to shake overnight. From these overnight cultures, subcultures were prepared by diluting the cultures 1:50 (v/v) in fresh BHI for S. aureus or 1:100 (v/v) in fresh LB for P. aeruginosa. An aliquot of each subculture (178 μL) was added to 20 μL of vesicle suspension and 2 μL of compound solution (dissolved in DMSO at 100× working concentration) in a clear-bottomed, black 96-well microtiter plate (Corning 3904). For controls, DMSO (vehicle) or Triton X-100 (1% final concentration) was substituted for compound. Plate covers were coated with an aqueous solution of 0.05% Triton X-100 and 20% ethanol (Brewster, 2003) to prevent the accumulation of condensation. Plates were incubated in a Biotek Synergy 2 microplate reader running Gen5 1.05 software at 37° C. with shaking at the high-speed setting. Fluorescence (excitation 500 nm, emission 540 nm) and OD600 (absorbance at 600 nm) measurements were recorded every 15 minutes for 12 hours. All experiments were performed in technical triplicate in a single microtiter plate. Biological triplicates were then obtained over three days. GraphPad Prism software (v. 9) was used to generate curves and calculate standard error.
# High-throughput screening and follow-up analysis protocols. Test compounds and positive control 1 were delivered in 2.5 nL aliquots of DMSO with an Echo 550 liquid handler (LabCyte Inc.) into black 384-well microtiter plates (Corning). All test compounds were tested at 10 μM; positive control 1 was tested at 250 nM. DMSO was used as a negative control. Overnight cultures (2 mL) of WT S. aureus (RN6390b) were grown at 37° C. with shaking at 200 rpm. These cultures were diluted 1:500 (v/v) in fresh BHI medium, at which point vesicle solutions were added to a final concentration of 1 mM phospholipid (as determined by ^31P NMR analyses). This vesicle-cell mixture was then added to the 384-well microtiter plates with a Multidrop 384 liquid-dispensing robot (Thermo Scientific) for a total volume of 50 μL per well. Plates were incubated statically for ˜24 hr at 37° C., at which point fluorescence (excitation 483, emission 530) and OD600 (absorbance at 600 nm) measurements were made using a CLARIOstarR Plus microtiter plate reader (BMG Labtech) running MARS data analysis software. Scatter plots were generated using the Collaborative Drug Discovery Vault informatics platform. […] Fluorescence (excitation 510, emission 544) and OD600 measurements were acquired with a PerkinElmer EnVision microtiter plate reader running Envision Manager software. […]
smiles,measurement,value
"CC(C)c1ccc(S(=O)(=O)c2nnn3c2nc(O)c2ccccc23)cc1 [Compound 6, savirin]",impact on cell growth,some effects on growth at later time points

# Reference: patent US12070445B2, “System and assay for monitoring production/release of membrane-lytic toxins in bacteria and compounds for modulating same” (priority 2021, dated 2024)
